This experiment has as its target T1, glucokinase (GK) (Homo sapiens, UniProt P35557).
T1 construct: I.D. No. 1 corresponds to residues 12-465 of glucokinase; made in house; host or cells: E. coli DH10b-T1r
T1 sequence (P35557 with tags, fused parts or gaps isoform P35557-2): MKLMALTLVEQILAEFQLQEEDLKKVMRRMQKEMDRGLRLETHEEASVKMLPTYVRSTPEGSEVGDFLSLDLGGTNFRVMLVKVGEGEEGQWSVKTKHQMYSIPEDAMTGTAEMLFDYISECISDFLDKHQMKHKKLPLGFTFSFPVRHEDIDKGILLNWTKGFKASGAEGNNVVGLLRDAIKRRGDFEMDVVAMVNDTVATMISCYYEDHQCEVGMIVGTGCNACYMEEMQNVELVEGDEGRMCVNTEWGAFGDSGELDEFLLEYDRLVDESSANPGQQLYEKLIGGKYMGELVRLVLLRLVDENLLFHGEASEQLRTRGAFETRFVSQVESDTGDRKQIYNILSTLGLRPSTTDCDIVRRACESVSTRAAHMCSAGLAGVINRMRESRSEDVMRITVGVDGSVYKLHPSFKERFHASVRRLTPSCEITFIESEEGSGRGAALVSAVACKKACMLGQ
Description: enzymatic glucokinase activity assay (ATP consumption, KinaseGlo luminescence). The format is biochemical. The following applies: recombinant GK residues 12-465; 5 μM ATP, 5 mM Glucose; Kact = concentration that displays 50% of the maximal increase in GK activity; read-out: pKact. In a few lines:
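Recombinant human glucokinase expressed in E. coli was run in 25 mM Hepes pH 7.2 with 10 mM MgCl2, 1 mM DTT, 5 μM ATP, 5 mM glucose and 2% DMSO for 60 min at room temperature. Remaining ATP was read by KinaseGlo luminescence; pKact came from non-linear curve fits.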
A general note: Kinase-Glo measures the ATP left after a reaction by luminescence.

Where a name gives a salt, the structure may show the parent alone. Bounds are passed on as bounds.

As for `COc1ccc2nc(NC(=O)[C@@H](CC3CCOCC3)n3c(C)cc(S(=O)(=O)c4ccoc4C)cc3=O)sc2n1` [Example 63, (R)-N-(5-methoxythiazolo[5,4-b]pyridin-2-yl)-2-(6-methyl-4-(2-methylfuran-3-ylsulfonyl)-2-oxopyridin-1(2H)-yl)-3-(tetrahydro-2H-pyran-4-yl)propanamide], the EC50 is more than 15.8 µM.
Take `CCCCC(C(=O)Nc1nccs1)n1c(C)cc(S(=O)(=O)C2CCCC2)cc1=O` (stereo not shown) [Example 18, 2-(4-(cyclopentylsulfonyl)-6-methyl-2-oxopyridin-1(2H)-yl)-N-(thiazol-2-yl)hexanamide]: the EC50 is 1.58 to 15.8 µM.
For the molecule `COc1ccc2nc(NC(=O)[C@@H](CC3CCCCC3)n3ccc(S(=O)(=O)C4CC4)cc3=O)sc2n1` [Example 75, (R)-3-cyclohexyl-2-(4-(cyclopropylsulfonyl)-2-oxopyridin-1(2H)-yl)-N-(5-methoxythiazolo[5,4-b]pyridin-2-yl)propanamide], the EC50 was 1.58 to 15.8 µM.
To `Cc1cc(S(=O)(=O)C2CCCC2)cc(=O)n1C(CC1CCCCC1)C(=O)Nc1ncc(Cc2ccc(F)cc2)s1` (stereo not shown) [Example 82, 3-cyclohexyl-2-(4-(cyclopentylsulfonyl)-6-methyl-2-oxopyridin-1(2H)-yl)-N-(5-(4-fluorobenzyl)thiazol-2-yl)propanamide] belongs less than 1.58 µM; to `Cc1cc(S(=O)(=O)C2CCCC2)cc(=O)n1C(CC1CCCC1)C(=O)Nc1nccs1` (stereo not shown) [Example 14, 3-cyclopentyl-2-(4-(cyclopentylsulfonyl)-6-methyl-2-oxopyridin-1(2H)-yl)-N-(thiazol-2-yl)propanamide], less than 1.58 µM.
In the case of `Cc1cc(-c2ccccc2Cl)cc(=O)n1[C@@H](CC1CCCCC1)C(=O)Nc1nccs1` [Example 91, (S)-2-(4-(2-chlorophenyl)-6-methyl-2-oxopyridin-1(2H)-yl)-3-cyclohexyl-N-(thiazol-2-yl)propanamide], the EC50 is more than 15.8 µM.
To `CS(=O)(=O)c1ccn(C(Cc2ccsc2)C(=O)Nc2ncc(Cl)s2)c(=O)c1` (stereo not shown) [Example 15, N-(5-chlorothiazol-2-yl)-2-(4-(methylsulfonyl)-2-oxopyridin-1(2H)-yl)-3-(thiophen-3-yl)propanamide] belongs more than 15.8 µM.
Turning to `Cc1ccc(S(=O)(=O)c2cc(C)n(C(CC(C)(C)C)C(=O)Nc3ncc(F)s3)c(=O)c2)cc1` (stereo not shown) [Example 43, N-(5-fluorothiazol-2-yl)-4,4-dimethyl-2-(6-methyl-2-oxo-4-tosylpyridin-1(2H)-yl)pentanamide], the EC50 lay in the range of 1.58 to 15.8 µM.
As for `O=C(Nc1ncc(Cl)s1)C(CC1CCCCC1)n1ccc(C(=O)N2CCCC2)cc1=O` (stereo not shown) [Example 129, N-(5-chlorothiazol-2-yl)-3-cyclohexyl-2-(2-oxo-4-(pyrrolidine-1-carbonyl)pyridin-1(2H)-yl)propanamide], the figure is 1.58 to 15.8 µM.
For the molecule `Cc1cc(-c2ncco2)cc(=O)n1C(CC1CCCCC1)C(=O)Nc1ncc(Cl)s1` (stereo not shown) [Example 143, N-(5-chlorothiazol-2-yl)-3-cyclohexyl-2-(6-methyl-4-(oxazol-2-yl)-2-oxopyridin-1(2H)-yl)propanamide], the EC50 lay within 1.58 to 15.8 µM.
`Cc1cc(S(=O)(=O)Cc2ccco2)cc(=O)n1C(CC1CCCCC1)C(=O)Nc1nccs1` (stereo not shown) [Example 81, 3-cyclohexyl-2-(4-(furan-2-ylmethylsulfonyl)-6-methyl-2-oxopyridin-1(2H)-yl)-N-(thiazol-2-yl)propanamide]: the EC50 is less than 1.58 µM.
As for `Cc1cc(S(=O)(=O)Cc2ccco2)cc(=O)n1C(CC1CCOCC1)C(=O)Nc1ncc(Cc2ccc(F)cc2)s1` (stereo not shown) [Example 144, N-(5-(4-fluorobenzyl)thiazol-2-yl)-2-(4-(furan-2-ylmethylsulfonyl)-6-methyl-2-oxopyridin-1(2H)-yl)-3-(tetrahydro-2H-pyran-4-yl)propanamide], the EC50 is 1.58 to 15.8 µM.
With `O=C(Nc1ncc(Cl)s1)[C@H](CC1CCOCC1)n1ccc(S(=O)(=O)C2CC2)cc1=O` [Example 30, (S)-N-(5-chlorothiazol-2-yl)-2-(4-(cyclopropylsulfonyl)-2-oxopyridin-1(2H)-yl)-3-(tetrahydro-2H-pyran-4-yl)propanamide], the EC50 is less than 1.58 µM.
Regarding `Cc1cc(S(=O)(=O)C2CC2)cc(=O)n1[C@@H](CC1CCCC1)C(=O)Nc1ncc(F)s1` [Example 162, (S)-3-cyclopentyl-2-(4-(cyclopropylsulfonyl)-6-methyl-2-oxopyridin-1(2H)-yl)-N-(5-fluorothiazol-2-yl)propanamide], the EC50 was less than 1.58 µM.
Regarding `O=C(Nc1ncc(Cl)s1)[C@H](CC1CCOCC1)n1ccc(S(=O)(=O)C2CCCC2)cc1=O` [Example 32, (S)-N-(5-chlorothiazol-2-yl)-2-(4-(cyclopentylsulfonyl)-2-oxopyridin-1(2H)-yl)-3-(tetrahydro-2H-pyran-4-yl)propanamide], the EC50 is less than 1.58 µM.
Take `CS(=O)(=O)c1ccn([C@@H](CC2CCOCC2)C(=O)Nc2ncc(Cl)s2)c(=O)c1` [Example 23, (S)-N-(5-chlorothiazol-2-yl)-2-(4-(methylsulfonyl)-2-oxopyridin-1(2H)-yl)-3-(tetrahydro-2H-pyran-4-yl)propanamide]: the EC50 was 1.58 to 15.8 µM.
`COc1ccc2nc(NC(=O)C(CC3CCCCC3)n3ccc(S(=O)(=O)C4CC4)cc3=O)sc2n1` (stereo not shown) [Example 68, 3-cyclohexyl-2-(4-(cyclopropylsulfonyl)-2-oxopyridin-1(2H)-yl)-N-(5-methoxythiazolo[5,4-b]pyridin-2-yl)propanamide]: the EC50 is less than 1.58 µM.
`COc1ccc2nc(NC(=O)[C@H](CC3CCOCC3)n3ccc(S(=O)(=O)C4CC4)cc3=O)sc2n1` [Example 49, (S)-2-(4-(cyclopropylsulfonyl)-2-oxopyridin-1(2H)-yl)-N-(5-methoxythiazolo[5,4-b]pyridin-2-yl)-3-(tetrahydro-2H-pyran-4-yl)propanamide]: the EC50 was less than 1.58 µM.
With `COc1cccc(CC(C(=O)Nc2nccs2)n2c(C)cc(S(=O)(=O)C3CCCC3)cc2=O)c1` (stereo not shown) [Example 20, 2-(4-(cyclopentylsulfonyl)-6-methyl-2-oxopyridin-1(2H)-yl)-3-(3-methoxyphenyl)-N-(thiazol-2-yl)propanamide], the EC50 is more than 15.8 µM.
`O=C(Nc1nc2cccnc2s1)[C@H](CC1CCOCC1)n1ccc(S(=O)(=O)C2CC2)cc1=O` [Example 52, (S)-2-(4-(cyclopropylsulfonyl)-2-oxopyridin-1(2H)-yl)-3-(tetrahydro-2H-pyran-4-yl)-N-(thiazolo[5,4-b]pyridin-2-yl)propanamide]: the EC50 lay in the range of 1.58 to 15.8 µM.
For `COc1cc(C)n(C(CC2CCCCC2)C(=O)Nc2nccs2)c(=O)c1` (stereo not shown) [Example 2, 3-cyclohexyl-2-(4-methoxy-6-methyl-2-oxopyridin-1(2H)-yl)-N-(thiazol-2-yl)propanamide trifluoroacetic acid salt], the EC50 is more than 15.8 µM.
As for `COc1ccc2nc(NC(=O)[C@H](CC3CCCCC3)n3c(C)cc(S(=O)(=O)C4CC4)cc3=O)sc2n1` [Example 123, (S)-3-cyclohexyl-2-(4-(cyclopropylsulfonyl)-6-methyl-2-oxopyridin-1(2H)-yl)-N-(5-methoxythiazolo[5,4-b]pyridin-2-yl)propanamide], the figure is less than 1.58 µM; as for `Cc1cc(S(=O)(=O)C2CCCC2)cc(=O)n1C(CCC(C)C)C(=O)Nc1nccs1` (stereo not shown) [Example 19, 2-(4-(cyclopentylsulfonyl)-6-methyl-2-oxopyridin-1(2H)-yl)-5-methyl-N-(thiazol-2-yl)hexanamide], 1.58 to 15.8 µM; as for `COC(C)(C)c1cnc(NC(=O)[C@@H](CC2CCOCC2)n2ccc(S(=O)(=O)C3CC3)cc2=O)s1` [Example 132, (R)-2-(4-(cyclopropylsulfonyl)-2-oxopyridin-1(2H)-yl)-N-(5-(2-methoxypropan-2-yl)thiazol-2-yl)-3-(tetrahydro-2H-pyran-4-yl)propanamide], 1.58 to 15.8 µM.
Take `O=C(Nc1ncc(F)s1)[C@@H](CC1CCOCC1)n1ccc(S(=O)(=O)C2CC2)cc1=O` [Example 36, (R)-2-(4-(cyclopropylsulfonyl)-2-oxopyridin-1(2H)-yl)-N-(5-fluorothiazol-2-yl)-3-(tetrahydro-2H-pyran-4-yl)propanamide]: the EC50 was more than 15.8 µM.
To `Cc1cc(S(=O)(=O)c2cccc(F)c2)cc(=O)n1[C@H](CC1CCOCC1)C(=O)Nc1ncc(F)s1` [Example 190, (R)-2-(4-(3-fluorophenylsulfonyl)-6-methyl-2-oxopyridin-1(2H)-yl)-N-(5-fluorothiazol-2-yl)-3-(tetrahydro-2H-pyran-4-yl)propanamide] belongs more than 15.8 µM; to `Cc1cc(S(=O)(=O)c2cccc(F)c2)cc(=O)n1C(CC1CCOCC1)C(=O)Nc1ncc(F)s1` (stereo not shown) [Example 159, 2-(4-(3-fluorophenylsulfonyl)-6-methyl-2-oxopyridin-1(2H)-yl)-N-(5-fluorothiazol-2-yl)-3-(tetrahydro-2H-pyran-4-yl)propanamide], 1.58 to 15.8 µM.
To `CCS(=O)(=O)c1cc(C)n(C(CC2CCCCC2)C(=O)Nc2nccs2)c(=O)c1` (stereo not shown) [Example 4, 3-cyclohexyl-2-(4-(ethylsulfonyl)-6-methyl-2-oxopyridin-1(2H)-yl)-N-(thiazol-2-yl)propanamide trifluoroacetic acid salt] belongs 1.58 to 15.8 µM.

For the origin of these results see patent publication US8163779B2, “Glucokinase activators” (Takeda San Diego, Inc., priority 2006, dated 2012).
